The source of these data is ChEMBL document CHEMBL1201862, “PubChem BioAssay data set” (2004).

The source made the active and inactive calls. For most assays here, no stated cut-off is given here; in the data, actives have a measured EC50 and inactives only a lower limit.

In assay [1] the target is T1, Replicative DNA helicase DnaB (Mycobacterium tuberculosis, UniProt P9WMR3).
T1 sequence (P9WMR3 whole entry): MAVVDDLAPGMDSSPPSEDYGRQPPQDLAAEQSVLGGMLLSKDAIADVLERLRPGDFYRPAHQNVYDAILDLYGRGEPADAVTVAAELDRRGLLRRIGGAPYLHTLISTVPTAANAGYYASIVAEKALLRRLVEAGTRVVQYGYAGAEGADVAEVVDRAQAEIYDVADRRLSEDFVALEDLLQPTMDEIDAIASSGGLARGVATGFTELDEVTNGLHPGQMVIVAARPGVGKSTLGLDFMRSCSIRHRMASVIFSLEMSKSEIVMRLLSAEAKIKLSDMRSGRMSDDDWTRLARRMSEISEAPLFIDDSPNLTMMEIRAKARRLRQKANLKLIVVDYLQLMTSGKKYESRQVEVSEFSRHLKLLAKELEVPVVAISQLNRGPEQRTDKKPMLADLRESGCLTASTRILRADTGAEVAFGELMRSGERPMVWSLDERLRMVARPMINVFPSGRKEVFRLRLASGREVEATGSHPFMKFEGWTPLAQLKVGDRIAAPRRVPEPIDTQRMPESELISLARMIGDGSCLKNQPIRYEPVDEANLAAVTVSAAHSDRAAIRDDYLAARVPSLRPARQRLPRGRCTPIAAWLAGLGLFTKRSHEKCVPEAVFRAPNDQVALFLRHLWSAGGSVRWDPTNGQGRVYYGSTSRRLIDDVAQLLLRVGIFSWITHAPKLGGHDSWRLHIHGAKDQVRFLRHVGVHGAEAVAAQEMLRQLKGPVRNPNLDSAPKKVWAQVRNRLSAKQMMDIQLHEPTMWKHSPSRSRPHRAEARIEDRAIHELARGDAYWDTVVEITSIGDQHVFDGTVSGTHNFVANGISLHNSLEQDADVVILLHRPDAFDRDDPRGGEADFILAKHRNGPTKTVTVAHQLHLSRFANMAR
Nature of the assay: DnaB intein splicing inhibitors, dose response, biochemical, cell-free fluorescence (AID 449749). It is filed as functional.

Assay [2] relates to BJ. Nature of the assay: cytotoxicity toward BJ-TERT fibroblasts, dose response, cell-based, RAS-independent, luminescence (AID 1933). As to conditions: Homo sapiens. The class given is functional.
For another assay, the system named is INS1. Nature of the assay: beta cell apoptosis inhibitors, cytokine rescue, dose response, luminescence, retest (AID 449756).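 Further: cell death triggered by IL-1 beta plus TNF-alpha plus IFN-gamma mixture; protective hits raise ATP signal compared with cytokine alone wells.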 The class given is functional, cell-based. As to conditions: Rattus norvegicus.
For assay [3], the system named is BJ. Nature of the assay: cytotoxicity toward BJ-TERT-LT-ST fibroblasts, dose response, cell-based, RAS-independent, luminescence (AID 1935).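 Further: BJ fibroblasts immortalized with TERT plus LT and ST oncogenes.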 It is filed as functional. Particulars: Homo sapiens.
Assay [4] deals with BJ. Nature of the assay: cells. The class given is functional, cell-based. As to conditions: Homo sapiens.

Broadly, the AC50 is the concentration at which the activity in the assay is half-maximal. The term EC50 denotes the concentration that produces a half-maximal response. Take `Cc1oc2c(c1C(=O)N1CCC(C)CC1)C(=O)c1ccccc1C2=O`: the AC50 is 73.9 µM (active) in assay [1] and 2.01 µM (active) in the assay on INS1. In addition, the EC50 in the assay with BJ [2] is 17.6 µM (active); in the assay on BJ [3], > 75 µM (not active); in the assay on BJ [4], 13.3 µM (active).
